Results published in US4336375A, “Cephalosporanic acid derivatives” (American Cyanamid Company, priority 1980, dated 1982).
In brackets after ≈: the same amount, converted by molar mass.

What was measured:
[1] = test system: Pseudomonas aeruginosa G236; experiment: In vitro MIC, agar dilution, Pseudomonas aeruginosa G236; assay type: cell-based; settings: Pseudomonas aeruginosa G236; agar dilution, 35° C., 18 hours, nutrient agar; read-out: Minimal Inhibitory Concentration
How it was run: (§1)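 Incubation ran for 18 hours at 35° C. in nutrient agar under the standard agar dilution method, with minimal inhibitory concentration recorded.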

[2] = test system: Pseudomonas aeruginosa PD05141; experiment: In vitro MIC, agar dilution, Pseudomonas aeruginosa PD05141; assay type: cell-based; settings: Pseudomonas aeruginosa, PD05141, 18 h, read-out: Minimal Inhibitory Concentration
How it was run: as §1

[3] = test system: Pseudomonas aeruginosa 12-4-4; experiment: In vitro MIC, agar dilution, Pseudomonas aeruginosa 12-4-4; assay type: cell-based; settings: 1244; Pseudomonas aeruginosa 12-4-4; agar dilution, 35° C., 18 hours, nutrient agar; read-out: Minimal Inhibitory Concentration
How it was run: as §1

[4] = test system: Pseudomonas aeruginosa UCS 76-13; experiment: In vitro MIC, agar dilution, Pseudomonas aeruginosa UCS 76-13; assay type: cell-based; settings: UCS7613; Pseudomonas aeruginosa UCS 76-13; agar dilution, 35° C., 18 hours, nutrient agar; read-out: Minimal Inhibitory Concentration
How it was run: as §1

[5] = test system: Klebsiella pneumoniae MA75-1; experiment: In vitro MIC, agar dilution, Klebsiella pneumoniae MA75-1; assay type: cell-based; settings: MA751; Klebsiella pneumoniae MA75-1; agar dilution, 35° C., 18 hours, nutrient agar; read-out: Minimal Inhibitory Concentration
How it was run: as §1

[6] = test system: Klebsiella pneumoniae W75-2; experiment: In vitro MIC, agar dilution, Klebsiella pneumoniae W75-2; assay type: cell-based; settings: W752; Klebsiella pneumoniae W75-2; agar dilution, 35° C., 18 hours, nutrient agar; read-out: Minimal Inhibitory Concentration
How it was run: as §1

[7] = test system: Klebsiella pneumoniae W75-4; experiment: In vitro MIC, agar dilution, Klebsiella pneumoniae W75-4; assay type: cell-based; settings: W754; Klebsiella pneumoniae W75-4; agar dilution, 35° C., 18 hours, nutrient agar; read-out: Minimal Inhibitory Concentration
How it was run: as §1

[8] = test system: Klebsiella pneumoniae UR76-1; experiment: In vitro MIC, agar dilution, Klebsiella pneumoniae UR76-1; assay type: cell-based; settings: UR761; Klebsiella pneumoniae UR76-1; agar dilution, 35° C., 18 hours, nutrient agar; read-out: Minimal Inhibitory Concentration
How it was run: as §1

Klebsiella pneumoniae AD = experiment: In vitro MIC, agar dilution, Klebsiella pneumoniae AD; assay type: cell-based; settings: Klebsiella pneumoniae AD; agar dilution, 35° C., 18 hours, nutrient agar; read-out: Minimal Inhibitory Concentration
How it was run: as §1

[9] = test system: Enterobacter aerogenes UR76-3; experiment: In vitro MIC, agar dilution, Enterobacter aerogenes UR76-3; assay type: cell-based; settings: Klebsiella aerogenes, UR763; Enterobacter aerogenes UR76-3; agar dilution, 35° C., 18 hours, nutrient agar; read-out: Minimal Inhibitory Concentration
How it was run: as §1

[10] = test system: Enterobacter cloacae MA75-1; experiment: In vitro MIC, agar dilution, Enterobacter cloacae MA75-1; assay type: cell-based; settings: MA751; Enterobacter cloacae MA75-1; agar dilution, 35° C., 18 hours, nutrient agar; read-out: Minimal Inhibitory Concentration
How it was run: as §1

[11] = test system: Enterobacter cloacae OSU75-2; experiment: In vitro MIC, agar dilution, Enterobacter cloacae OSU75-2; assay type: cell-based; settings: OSU752; Enterobacter cloacae OSU75-2; agar dilution, 35° C., 18 hours, nutrient agar; read-out: Minimal Inhibitory Concentration
How it was run: as §1

Serratia K101 = experiment: In vitro MIC, agar dilution, Serratia K101; assay type: cell-based; settings: Serratia K101; agar dilution, 35° C., 18 hours, nutrient agar; read-out: Minimal Inhibitory Concentration
How it was run: as §1

Serratia marcens K77-1 = experiment: In vitro MIC, agar dilution, Serratia marcens K77-1; assay type: cell-based; settings: K771; Serratia marcens K77-1; agar dilution, 35° C., 18 hours, nutrient agar; read-out: Minimal Inhibitory Concentration
How it was run: as §1

Serratia marcens QHC77-2 = experiment: In vitro MIC, agar dilution, Serratia marcens QHC77-2; assay type: cell-based; settings: QHC772; Serratia marcens QHC77-2; agar dilution, 35° C., 18 hours, nutrient agar; read-out: Minimal Inhibitory Concentration
How it was run: as §1

Proteus vulgaris N74-1 = experiment: In vitro MIC, agar dilution, Proteus vulgaris N74-1; assay type: cell-based; settings: N741, 35° C., 18 hours, nutrient agar, read-out: Minimal Inhibitory Concentration
How it was run: as §1

Proteus morganii K72 = experiment: In vitro MIC, agar dilution, Proteus morganii K72; assay type: cell-based; settings: Morganella morganii; Proteus morganii K72; agar dilution, 35° C., 18 hours, nutrient agar; read-out: Minimal Inhibitory Concentration
How it was run: as §1

Proteus rettgeri N76-1 = experiment: In vitro MIC, agar dilution, Proteus rettgeri N76-1; assay type: cell-based; settings: Providencia rettgeri, N761; Proteus rettgeri N76-1; agar dilution, 35° C., 18 hours, nutrient agar; read-out: Minimal Inhibitory Concentration
How it was run: as §1

[12] = test system: Escherichia coli ESS22-31; experiment: In vitro MIC, agar dilution, Escherichia coli ESS22-31; assay type: cell-based; settings: ESS2231; Escherichia coli ESS22-31; agar dilution, 35° C., 18 hours, nutrient agar; read-out: Minimal Inhibitory Concentration
How it was run: as §1

Escherichia coli W75-1 = experiment: In vitro MIC, agar dilution, Escherichia coli W75-1; assay type: cell-based; settings: W751, 35° C., 18 hours, nutrient agar, read-out: Minimal Inhibitory Concentration
How it was run: as §1

Escherichia coli OSU75-1 = experiment: In vitro MIC, agar dilution, Escherichia coli OSU75-1; assay type: cell-based; settings: OSU751, 35° C., 18 hours, nutrient agar, read-out: Minimal Inhibitory Concentration
How it was run: as §1

Escherichia coli 311 [13] = experiment: In vitro MIC, agar dilution, Escherichia coli 311; assay type: cell-based; settings: 35° C., 18 hours, nutrient agar, read-out: Minimal Inhibitory Concentration
How it was run: as §1

[14] = test system: Staphylococcus aureus Q74-1; experiment: In vitro MIC, agar dilution, Staphylococcus aureus Q74-1; assay type: cell-based; settings: Q741; Staphylococcus aureus Q74-1; agar dilution, 35° C., 18 hours, nutrient agar; read-out: Minimal Inhibitory Concentration
How it was run: as §1

[15] = test system: Staphylococcus aureus Q74-6; experiment: In vitro MIC, agar dilution, Staphylococcus aureus Q74-6; assay type: cell-based; settings: Q746; Staphylococcus aureus Q74-6; agar dilution, 35° C., 18 hours, nutrient agar; read-out: Minimal Inhibitory Concentration
How it was run: as §1

Enterococcus SM77-15 = experiment: In vitro MIC, agar dilution, Enterococcus SM77-15; assay type: cell-based; settings: SM7715; Enterococcus SM77-15; agar dilution, 35° C., 18 hours, nutrient agar; read-out: Minimal Inhibitory Concentration
How it was run: as §1

Escherichia coli 311 [16] = experiment: In vivo systemic lethal infection of mice, Escherichia coli 311; design: species or system Charles River CD-1 mice; settings: CD-1 mice
Source text: (§2) As shown in Table II these compounds show high in vivo antibacterial activity against Escherichia coli 311 and Klebsiella pneumoniae W-75-2 when administered by a single subcutaneous dose to groups of Charles River CD-1 mice, weighing about 20 g. each. The mice are infected intraperitoneally with a lethal dose of these bacteria.

[17] = test system: Klebsiella pneumoniae W-75-2; experiment: In vivo systemic lethal infection of mice, Klebsiella pneumoniae W-75-2; design: species or system Charles River CD-1 mice; settings: CD-1 mice
Source text: as §2

[18] = single subcutaneous dose 0.12 mg./kg.
[19] = single subcutaneous dose 0.25 mg./kg.
[20] = single subcutaneous dose 0.5 mg./kg.

With `CO/N=C(\C(=O)NC1C(=O)N2C(C(=O)O)=C(CSc3nnc(-n4cccn4)n3N)CSC12)c1csc(N)n1` (stereo not drawn) [Compound I, 7-[2-(Syn-methoxyimino)-2-(2-aminothiazol-4-yl)acetamido]-3-[4-amino-5-(1-pyrazolyl)-1,2,4-triazol-3-ylthiomethyl]-3-cephem-4-carboxylic acid] the MIC [1] was 64 µg/mL (≈ 111 µM), the MIC [2] was 128 µg/mL (≈ 222 µM) and the MIC [3] was 64 µg/mL (≈ 111 µM). For the same compound, the MIC [4] was 128 µg/mL (≈ 222 µM), the MIC [5] was at most 0.12 µg/mL and the MIC [6] was at most 0.12 µg/mL. For the same compound, the MIC [7] was at most 0.12 µg/mL, the MIC [8] was 0.5 µg/mL (≈ 0.866 µM) and the MIC (Klebsiella pneumoniae AD) was at most 0.12 µg/mL. It also gave an MIC [9] of at most 0.12 µg/mL, an MIC [10] of 128 µg/mL (≈ 222 µM) and an MIC [11] of 0.5 µg/mL (≈ 0.866 µM). It also gave an MIC (Serratia K101) of 0.5 µg/mL (≈ 0.866 µM), an MIC (Serratia marcens K77-1) of 0.5 µg/mL (≈ 0.866 µM) and an MIC (Serratia marcens QHC77-2) of 1 µg/mL (≈ 1.73 µM). The MIC (Proteus vulgaris N74-1) was at most 0.12 µg/mL, the MIC (Proteus morganii K72) was at most 0.12 µg/mL and the MIC (Proteus rettgeri N76-1) was at most 0.12 µg/mL. The MIC [12] was at most 0.12 µg/mL, the MIC (Escherichia coli W75-1) was at most 0.12 µg/mL and the MIC (Escherichia coli OSU75-1) was at most 0.12 µg/mL. The MIC (Escherichia coli 311 [13]) was at most 0.12 µg/mL, the MIC [14] was 2 µg/mL (≈ 3.46 µM) and the MIC [15] was 64 µg/mL (≈ 111 µM). The MIC (Enterococcus SM77-15) was over 128 µg/mL, the “Alive/Total Mice Tested, 7 Days After Infection” value (from here on “Alive/Total Mice Tested”) (Escherichia coli 311 [16]; [18]) was 1/20 and the “Alive/Total Mice Tested” value (Escherichia coli 311 [16]; [19]) was 6/20. The “Alive/Total Mice Tested” value (Escherichia coli 311 [16]; [20]) was 15/20, the “Alive/Total Mice Tested” value (Escherichia coli 311 [16]; single subcutaneous dose 1 mg./kg.) was 19/20 and the “Alive/Total Mice Tested” value ([17]; single subcutaneous dose 0.06 mg./kg.) was 1/20. The “Alive/Total Mice Tested” value [17, 18] was 2/20, the “Alive/Total Mice Tested” value [17, 19] was 14/20 and the “Alive/Total Mice Tested” value [17, 20] was 19/20.
